Blank lines part the entries; values can stand above or below the compound they belong to.
Assays:
[1] = target: T1, L-type Ca2+ channel (Rattus norvegicus, UniProt P22002); assay: Ca2+ channel study, whole cell patch clamp in single VSMC; type: cell-based; details: IBMX applied after FMOC-PHF
T1 construct: single VSMC isolated form rat tail artery by using the whole cell version of the patch clamp technique; endogenous in cells; host or cells: freshly isolated vascular smooth muscle cells of rat tail artery
Protocol: Ca^2+ channel activity was determined in single VSMC isolated form rat tail artery by using the whole cell version of the patch clamp technique (Hamill et al., 1981). Whole cell Ca^2+ current measurements were carried out by using an Axopatch-1B patch clamp amplifier (Axon Instruments). Patch micropipettes were pulled from borosilicate thin wall glass capillary tubes (OD 1.2 mm, ID 0.9 mm, FHS, Brunswick, Maine, USA) with a two stage micropipette puller (Narishige, PP83, Japan). The micropipettes were fire polished using a microforge (Leitz, Wetzlar, Germany). The tip diameter was approximately 1 μm with a resistance of 2-8 Mega Ohms. The cell attached to the bottom of a 3 cm Petri dish and was bathed in the medium containing 110 mM Tris, 5 mM CsCl, 20 mM HEPES, 30 mM glucose, 20 mM BaCl2, and 0.5 μM TTX. The polished pipette filled with a solution containing 75 mM Cs2 -aspartate, 10 mM EGTA, 2 mM ATP, 5 mM MgCl2, 5 mM K-pyruvate, 5 mM K-succinate, 25 mM glucose, 15 mM HEPES, 5 mM creatine phosphate-Na2, and 50 units/ml creatine kinase was placed against the cell membrane using a Narishige hydraulic micromanipulator. Gentle suction was applied via a tubing attached to the pipette holder. […] The currents were monitored using a digital oscilloscope (Nicolet Instrument Co., Madison, Wis., U.S.A.) and filtered at 3 KHz with a low pass filter (Axon Instruments, Foster City, Calif., U.S.A.). […]

[2] = system: SD rats; assay: Blood pressure bioassay, bolus injection into anesthetized normotensive SD rats; type: in vivo; details: normotensive rat, as in Example 1
Protocol: SD rats were anesthetized using Na pentobarbital, (50 mg/kg, i.p.) and catheters were inserted in the jugular vein for injection of plasma and drugs and in the carotid artery for measurement of b.p.
The chloroform methanol extract of SHR plasma was redissolved in saline and administered by bolus injection.

[3] = system: Na+ K+ ATPase; assay: Na+ K+ ATPase activity as ouabain-sensitive 86Rb uptake in rat tail artery; type: cell-based
Protocol: Na^+ K^+ ATPase activity was measured as the ouabain-sensitive ^86 Rb uptake in rat tail artery using the method of Deth et al. Briefly, male Sprague-Dawley rats weighing 300 to 400 g were sacrificed by pentobarbital overdose, and the tail arteries removed and cut into strips. The strips were rinsed in ice-cold Krebs solution (composition: NaCl, 117 mM; KCl, 5 mM; NaHCO3, 27 mM, NaH2 PO4, 1 mM, MgSO4, 1.2 mM, CaCl2, 1.25 mM, glucose 11.0 mM) and incubated in oxygenated (95% O2, 5% CO2) Krebs buffer at 37° C. for 2 hours. For the final 30 minutes, Krebs solution with no KCl and 122 mM NaCl was used to sodium-load the tissues. Following this incubation, the strips were transferred to tubes containing Krebs buffer and 1 μCi of ^86 Rb, giving a final […] concentration of 5 mM. Various incubation media consisting of the above-described incubation solution plus 30% SHR plasma (Rb concentration kept constant in all cases) plus 1 mM ouabain and incubation plus 30% plasma plus 1 mM ouabain. Strips were incubated in the respective solutions for 18 minutes, then rinsed in four changes of ice-cold Krebs solution, blotted, weighed and counted in a gamma counter. The effect of the various incubations on ^86 Rb uptake was analyzed by ANOVA using the Student-Neuman-Keuuls test for post-hoc comparisons. All results are expressed as mean±SD.

[4] = system: rat tail artery; assay: Blood vessel tension measurement, norepinephrine-induced tension in helical strips; type: cell-based; details: 40 mins incubation before second NE doses
Protocol: The method was essentially similar to the one described by Pang, et al. (1980). Sprague-Dawley rats of either sex were anesthetized with pentobarbital (50 mg/kg) and the tail artery or aorta were isolated and removed and then placed in KHS buffer (115 mM NaCl, 5 mM KCl, 2.1 mM CaCl2, 1.2 mM MgSO4, 1.2 mM NaH2 PO4, 25 mM NaHCO3, and 11 mM glucose) oxygenated with 95% O2, 5% CO2. The vessels were cut helically and strips of approximately 1.5 cm were secured in a Sawyer-Bartlestone chamber containing KHS. The force development of the helical strips was measured with a Grass FT 0.03 force displacement transducer and recorded on a Grass Model 79D polygraph. Isolated tail artery helical strips were equilibrated for 1 hour prior to addition of any vasoconstricting agents. The strips were preloaded with a resting tension of 0.7 g and incubated at 37° C. (Pang et al., 1985). In all cases, the responsiveness of strips was first tested by adding 60 mM KCl and only responsive tissue was used in experiments. There were two series of experiments.
Two consecutive dose responses to NE in tension development with 1 hour interval were compared. The tissue was washed out after adding first accumulated doses of NE and incubated in normal KHS buffer for 20 mins. The control solvent or testing substances (PHF or LP compounds) were then applied and incubated for another 40 mins. […]

[5] = system: CaM (calmodulin)-Dependent PDE; assay: Activation of CaM-dependent PDE (cGMP-PDE activity); type: biochemical
Protocol: The measurement of cGMP-PDE activity is based on the conversion of [^3 H]cGMP into [^3 H]GMP and its subsequent hydrolysis by snake venom into [^3 H]Guanosine (Wallace, et al., 1983; Wells, et al., 1975). The testing substance was added to a mixture containing 60 mM TES, 3 mM MgCl2, 0.8 mg/ml BSA, 25 μM EGTA, 50 uM CaCl2, 1 mM DTT, 0.5 μM cGMP and [^3 H]-cGMP (10-15×10^3 cpm) at a final pH of 7.5 for a total volume of 200 μl. The reaction was started by the addition of a fixed quantity of CaM-deficient PDE (Sigma Chemical Co., St. Louis, Mo.). Incubation carried out for 15 mins at 30° C., was terminated by boiling for 5 mins. The second reaction was initiated by the addition of 20 μl (10 mg/ml) of snake venom (Crotalus atrox). After 10 mins., the incubation was stopped with 700 μl of a second termination medium containing 0.1 mM guanosine. The total incubation mixture was then applied onto a column of QAE-Sephadex A-25 (formate form) to separate labeled nucleotides from the labeled nucleosides formed. The resin was eluted with 4 ml of 20 mM ammonium formate (pH 6.5), and the radioactivity of the eluate containing [^3 H]guanosine was determined in a liquid scintillation counter. A standard curve of PDE stimulation by CaM was obtained by the addition of different concentrations of purified bovine heart CaM (Sigma) (0.1-200 ng/tube). […]

[6] = system: vascular smooth muscle cells isolated from rat tail artery; assay: Intracellular calcium determination (fura-2); type: cell-based; details: 45 mins incubation before KCl; 30 mM KCl for pure PHF, 15 mM KCl for FMOC-PHF
Protocol: All studies were performed in vascular smooth muscle cells isolated from Sprague Dawley (SD) rat tail artery as described in Wang, et al. (Wang, et al. 1989) with modification. Male SD rats (100-200 g body weight) were anaesthetized with sodium pentobarbital (65 mg/kg body weight intraperitoneally) and the tail artery dissected out and immersed in cold Ca and Mg free Hanks' balanced salt solution (HBSS, Gibco). The blood was washed off from the artery and the connective tissue was then removed. Using a dissecting microscope inside a laminar flow hood, the artery was cut into pieces of about 1.5 cm and placed in 4° C. Ca free HBSS for 30 minutes. […]
Primary cultured vascular smooth muscle cells were incubated for 45 minutes in DMEM containing 5 μM fura-2 acetoxymethyl ester (Molecular Probes, INC.) at room temperature. […] After about 5 min, the coverslip with attached cells was placed in a Sykes-Moore chamber of 1-ml volume on the stage of an inverted microscope, and fluorescence measurements were made with a Fluoroplex III sepctrofluorometer (Tracor Northern). […] R is the ratio of fluorescence in the sample excited at […] which represents intracellular free calcium concentration. […]
The monolayer cells in 1 mM Ca^2+ 5K buffer were challenged by testing substances and the change of R was recorded for a certain period of time. […]

T1 sequence (P22002 whole entry): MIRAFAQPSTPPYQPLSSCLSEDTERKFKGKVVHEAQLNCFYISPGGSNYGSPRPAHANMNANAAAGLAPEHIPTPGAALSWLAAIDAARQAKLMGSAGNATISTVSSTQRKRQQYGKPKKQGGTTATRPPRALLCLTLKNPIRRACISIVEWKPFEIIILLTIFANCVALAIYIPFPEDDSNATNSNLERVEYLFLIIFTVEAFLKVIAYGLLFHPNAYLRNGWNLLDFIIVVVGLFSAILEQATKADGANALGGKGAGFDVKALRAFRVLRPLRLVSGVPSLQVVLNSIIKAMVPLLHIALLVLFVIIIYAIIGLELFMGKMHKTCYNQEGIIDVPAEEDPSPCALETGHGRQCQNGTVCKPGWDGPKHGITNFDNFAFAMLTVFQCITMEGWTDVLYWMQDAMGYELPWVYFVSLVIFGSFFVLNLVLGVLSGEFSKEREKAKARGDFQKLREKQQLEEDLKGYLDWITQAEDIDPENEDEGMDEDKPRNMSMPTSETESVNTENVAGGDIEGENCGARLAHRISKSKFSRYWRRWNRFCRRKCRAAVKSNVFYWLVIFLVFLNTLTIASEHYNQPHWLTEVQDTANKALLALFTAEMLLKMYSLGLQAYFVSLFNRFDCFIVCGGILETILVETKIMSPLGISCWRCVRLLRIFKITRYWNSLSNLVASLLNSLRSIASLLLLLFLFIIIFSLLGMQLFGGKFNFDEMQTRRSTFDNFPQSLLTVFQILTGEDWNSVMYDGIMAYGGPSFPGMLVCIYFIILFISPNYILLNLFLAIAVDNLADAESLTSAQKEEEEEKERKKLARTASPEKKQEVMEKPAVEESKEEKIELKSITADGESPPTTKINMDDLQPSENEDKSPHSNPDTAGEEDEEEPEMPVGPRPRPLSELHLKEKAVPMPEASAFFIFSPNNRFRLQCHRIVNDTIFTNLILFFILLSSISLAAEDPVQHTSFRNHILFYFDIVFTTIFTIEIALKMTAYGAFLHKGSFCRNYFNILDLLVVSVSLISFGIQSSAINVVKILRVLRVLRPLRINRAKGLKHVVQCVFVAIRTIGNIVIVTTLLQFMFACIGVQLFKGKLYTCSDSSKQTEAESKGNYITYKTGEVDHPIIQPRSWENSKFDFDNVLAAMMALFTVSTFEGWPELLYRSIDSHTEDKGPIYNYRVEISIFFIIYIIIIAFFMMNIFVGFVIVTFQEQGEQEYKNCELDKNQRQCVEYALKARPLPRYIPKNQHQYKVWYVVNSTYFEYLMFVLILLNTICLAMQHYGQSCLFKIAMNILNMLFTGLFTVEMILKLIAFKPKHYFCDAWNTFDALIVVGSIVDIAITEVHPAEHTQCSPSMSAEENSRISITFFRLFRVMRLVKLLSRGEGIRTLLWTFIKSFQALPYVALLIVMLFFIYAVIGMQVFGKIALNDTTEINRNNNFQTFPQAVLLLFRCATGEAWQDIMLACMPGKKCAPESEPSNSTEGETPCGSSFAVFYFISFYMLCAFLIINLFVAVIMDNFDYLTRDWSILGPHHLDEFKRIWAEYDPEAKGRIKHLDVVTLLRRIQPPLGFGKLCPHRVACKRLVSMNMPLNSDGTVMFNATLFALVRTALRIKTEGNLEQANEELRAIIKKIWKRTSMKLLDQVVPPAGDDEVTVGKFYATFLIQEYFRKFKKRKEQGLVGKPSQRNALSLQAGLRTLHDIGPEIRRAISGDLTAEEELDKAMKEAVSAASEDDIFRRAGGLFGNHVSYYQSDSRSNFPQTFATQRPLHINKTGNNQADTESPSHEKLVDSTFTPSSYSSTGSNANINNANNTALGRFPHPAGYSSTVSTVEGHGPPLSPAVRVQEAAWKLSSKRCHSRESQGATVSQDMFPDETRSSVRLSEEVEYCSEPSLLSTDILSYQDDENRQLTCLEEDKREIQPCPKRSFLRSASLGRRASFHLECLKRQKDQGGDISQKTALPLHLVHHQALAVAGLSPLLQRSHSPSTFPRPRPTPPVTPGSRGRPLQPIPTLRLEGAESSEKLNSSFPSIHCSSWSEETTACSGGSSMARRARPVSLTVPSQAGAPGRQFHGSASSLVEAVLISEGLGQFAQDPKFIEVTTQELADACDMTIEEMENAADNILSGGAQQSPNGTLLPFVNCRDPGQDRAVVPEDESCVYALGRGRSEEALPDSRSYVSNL
T1 sequence (P54290 25-944 partner limits assumed): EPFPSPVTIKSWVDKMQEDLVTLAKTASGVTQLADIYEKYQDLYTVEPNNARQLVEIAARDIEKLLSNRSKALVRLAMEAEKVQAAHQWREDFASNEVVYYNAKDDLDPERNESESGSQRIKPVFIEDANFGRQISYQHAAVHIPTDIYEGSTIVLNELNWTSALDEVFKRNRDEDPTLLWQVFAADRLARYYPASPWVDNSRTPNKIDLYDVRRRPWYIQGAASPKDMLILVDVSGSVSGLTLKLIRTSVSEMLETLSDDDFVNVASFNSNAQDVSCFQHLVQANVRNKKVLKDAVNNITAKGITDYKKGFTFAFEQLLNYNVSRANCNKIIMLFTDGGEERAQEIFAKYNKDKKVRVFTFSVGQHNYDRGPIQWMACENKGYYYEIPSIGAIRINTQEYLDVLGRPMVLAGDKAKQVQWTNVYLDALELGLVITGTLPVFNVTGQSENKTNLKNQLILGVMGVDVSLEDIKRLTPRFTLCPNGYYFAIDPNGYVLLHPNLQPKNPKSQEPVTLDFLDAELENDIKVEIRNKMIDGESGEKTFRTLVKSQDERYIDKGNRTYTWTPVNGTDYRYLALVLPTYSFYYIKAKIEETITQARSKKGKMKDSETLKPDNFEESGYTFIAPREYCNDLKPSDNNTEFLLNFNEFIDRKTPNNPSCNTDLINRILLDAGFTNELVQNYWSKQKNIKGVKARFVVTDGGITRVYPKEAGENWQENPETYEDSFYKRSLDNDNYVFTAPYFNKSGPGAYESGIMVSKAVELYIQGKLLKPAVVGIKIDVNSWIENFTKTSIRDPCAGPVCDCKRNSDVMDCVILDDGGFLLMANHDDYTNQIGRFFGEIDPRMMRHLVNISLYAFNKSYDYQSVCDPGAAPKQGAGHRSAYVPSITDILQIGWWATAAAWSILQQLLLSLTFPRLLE
T1 sequence (P54290 945-1091 partner limits assumed): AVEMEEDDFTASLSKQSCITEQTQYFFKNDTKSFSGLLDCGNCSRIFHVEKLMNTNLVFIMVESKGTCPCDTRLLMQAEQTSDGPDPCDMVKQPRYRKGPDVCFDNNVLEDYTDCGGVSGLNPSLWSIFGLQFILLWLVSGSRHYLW
T1 sequence (P54287 whole entry partner): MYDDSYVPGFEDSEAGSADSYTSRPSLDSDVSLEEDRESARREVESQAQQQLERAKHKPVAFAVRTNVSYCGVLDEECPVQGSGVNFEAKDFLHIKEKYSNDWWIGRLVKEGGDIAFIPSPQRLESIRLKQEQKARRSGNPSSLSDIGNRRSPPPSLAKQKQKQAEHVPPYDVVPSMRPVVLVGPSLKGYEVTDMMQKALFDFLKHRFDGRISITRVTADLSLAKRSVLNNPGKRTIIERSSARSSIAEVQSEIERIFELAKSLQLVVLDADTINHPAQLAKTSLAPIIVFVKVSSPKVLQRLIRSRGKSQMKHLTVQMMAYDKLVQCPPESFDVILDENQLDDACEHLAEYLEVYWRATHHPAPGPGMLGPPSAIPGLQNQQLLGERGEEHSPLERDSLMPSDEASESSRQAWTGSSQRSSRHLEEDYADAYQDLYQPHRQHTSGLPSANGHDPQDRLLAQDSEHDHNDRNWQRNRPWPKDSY

- effect on calcium channel current increased by FMOC-PHF [1]: reversal
Compound: CC(C)Cn1c(=O)n(C)c(=O)c2[nH]cnc21 [IBMX]

- increase in 86Rb uptake ([3]; 600 micromolar, p<0.05): 31%
Compound: Lysophosphatidyl inositol
- hypertensive response (blood pressure in normotensive rats) [2]: delayed, sustained increase in blood pressure
- effect on norepinephrine induced tension development [4]: potentiations of norepinephrine induced tension

- increase in 86Rb uptake ([3]; 30 micromolar, p<0.01): 46%
- effect on phosphodiesterase (PDE) activity [5]: stimulated PDE activity
Compound: Lysophosphatidyl serine
- hypertensive response (blood pressure in normotensive rats) [2]: delayed sustained increase in blood pressure

Compound: lysophosphatidyl choline [LPC]
- effect on intracellular calcium ([Ca2+]i increment induced by KCl) [6]: significantly augments the increase in intracellular calcium induced by KCl
